The values below come from ChEMBL document CHEMBL1144964, “Inhibition of mandelate racemase by alpha-fluorobenzylphosphonates” (Bioorg Med Chem Lett, 2003).

Data set [1] in a line: Inhibition constant against Mandelate racemase from Pseudomonas putida at pH 6.3.
Another data set addresses T1, Mandelate racemase (Pseudomonas putida, UniProt P11444).
T1 sequence (P11444 whole entry): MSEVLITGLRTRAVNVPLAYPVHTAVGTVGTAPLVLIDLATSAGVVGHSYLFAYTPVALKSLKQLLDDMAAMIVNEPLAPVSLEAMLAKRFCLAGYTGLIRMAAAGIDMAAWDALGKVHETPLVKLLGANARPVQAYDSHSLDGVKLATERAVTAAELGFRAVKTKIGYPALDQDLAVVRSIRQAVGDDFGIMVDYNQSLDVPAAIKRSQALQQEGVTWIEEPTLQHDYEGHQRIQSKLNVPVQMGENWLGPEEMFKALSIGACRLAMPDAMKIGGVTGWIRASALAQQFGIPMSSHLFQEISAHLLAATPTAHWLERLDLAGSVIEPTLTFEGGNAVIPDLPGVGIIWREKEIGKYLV
Kind of data set: Inhibition constant against Mandelate racemase from Pseudomonas putida at pH 7.5.

The nature of data set [2]: pKa2 (Dissociation constant) value (phosphonate group) was determined. It counts as physicochemical. As to conditions: read-out: pKa2.
The nature of data set [3]: Inhibition constant against mandelate racemase from Pseudomonas putida at pH 6.3.

On to `O=P(O)(O)[C@H](F)c1ccccc1`, for which the Ki was 87 µM in data set [1] and 530 µM on Mandelate racemase. On to `O=P(O)(O)[C@H](O)c1ccccc1`, for which the pKa in data set [2] amounted to 6.89. At Mandelate racemase, this molecule gave a Ki of 1.1 µM. `O=P(O)(O)C(O)c1ccccc1` (racemic) [ALPHA HYDROXY BENZYLPHOSPHONATE]: in data set [2], the pKa is 6.89. The molecule further yielded a Ki at Mandelate racemase of 4.7 µM. In the same order, the values of `O=C(c1ccccc1)P(=O)(O)O` [BENZOYLPHOSPHONATE] are 5.46 and 300 µM. `O=P(O)(O)[C@@H](F)c1ccccc1`: affinity on Mandelate racemase was put at a Ki of 1110 µM.

As to `O=P(O)(O)C(F)c1ccccc1` (racemic), the Ki on Mandelate racemase turned out to be 810 µM.

At Mandelate racemase, `O=P(O)(O)Cc1ccccc1` [BENZYLPHOSPHONIC ACID] came in with a Ki of 3600 µM. `O=P(O)(O)[C@@H](O)c1ccccc1`: in data set [2], the pKa came out at 6.89. Moreover, affinity at Mandelate racemase was put at a Ki of 34 µM.

Turning to `O=P(O)(O)C(F)(F)c1ccccc1`, the figures for the Ki (on Mandelate racemase; in data set [3]) were 12000 µM and 1000 µM, respectively.

Broadly, the Ki is a measure of affinity in units of concentration, obtained from inhibition or displacement.
